For one experiment, the target named is αvβ3 integrin (Homo sapiens, UniProt P05106+P06756). The experiment can be described thus: Inhibition of peptide-displaying phage binding to αvβ3 integrin by synthetic peptides. More on the design: The αvβ3, αvβ5 and α5β1 integrins were isolated from human placental extracts; from tissue; host or cells: human placenta. From the text:
In addition, most of the phage-binding activity in the αvβ3 preparation was captured into microliter wells coated with antibodies against the αv or β3 subunits as described previously (Koivunen et al., J. Biol. Chem., 268:20205–10 (1993). The αIIbβ3 integrin was isolated from outdated platelets (Pytela et al., Science, 231:1559–1562 (1986)).
Binding of individual cloned phage to integrins was studied in microliter wells as described in Koivunen et al., J. Cell. Biol., 124:373–380 (1994). Phage binding to α5β1 and αvβ3 were assayed in TBS buffer containing 1% BSA and 1 mM MnCl2 and binding to αvβ5 in the presence of 1 mM CaCl2. Phage that were bound were determined by their ability to infect F-pilus positive K91kan bacteria. Bacteria were grown overnight in microliter wells in the presence of tetracycline and the absorbance indicative of bacterial growth was read at 600 nm with an ELISA plate reader.
The ability of […] [SEQ ID NO:12] and CRGDC [SEQ ID NO:37] containing peptides to inhibit binding of CRGDCL-displaying [SEQ ID NO:7] phage to the microwells coated with αvβ3 integrin also was examined. CRGDCL-displaying [SEQ ID NO:7] phage were added to a well and either cyclic […] [SEQ ID NO:6] or cyclic […] [SEQ ID NO:5] was added to compete for binding. Binding was quantitated as described above.

The subject of another experiment is α5β1 integrin. The experiment can be described thus: Inhibition of α5β1-mediated cell attachment to fibronectin. The class given is cell-based, human. From the text:
(§1) Cell lines expressing different integrins were used to examine peptide inhibition of integrin function. A human melanoma cell line, C8161, a fibroblast cell line, WI-38, and an osteosarcoma cell line, MG-63 (described by Seftor et al., Canc. Res., 53:3411–3415 (1993); Vogel et al., J. Biol. Chem., 265:5934–5937 (1990); and Pytela et al. (1985), supra, respectively, each of which is incorporated herein by reference) attach to fibronectin through α5β1 integrin, as does B2/α27, a CHO cell line transfected with human α5. B2/C1, the control parental CHO line (Bauer et al., J. Cell. Biol. 116:477–487 (1992), which is incorporated herein by reference), attaches via […]. CHO cells C11 and NIH 3T3 cells express the endogenous Chinese hamster and mouse α5β1 integrins, respectively. The human melanoma cells, A375-M, attach to fibronectin through both α5β1 and α4β1 integrins (Mould et al., J. Biol. Chem. 265:4020–4024 (1990), which is incorporated herein by reference). CHO cell line B2/v7 express the αvβ1 integrin (Zhang et al., J. Cell. Biol. 122:235–242 (1993), which is incorporated herein by reference). The vitronectin-binding integrins […] and αvβ3 were assayed using the cell line HT-29 and IMR-90, respectively (Koivunen et al., J. Biol. Chem. 268: 20205–20210 (1993)).
(§2) Cell lines expressing fibronectin-binding integrins were used to determine peptide activities against these integrins in the cell attachment assay described by Ruoslahti et al., Meth. Enzymol., 144:803–831 (1982), which is incorporated herein by reference. Human plasma fibronectin was iodinated as described by Morla and Ruoslahti, J. Cell Biol., 118:421–429 (1992), which is incorporated herein by reference. Vitronectin was obtained from Telios Pharmaceuticals (San Diego, Calif.). […] Peptide was coated on plastic by incubating at 37° C. for 2 hours in phosphate buffered saline containing 0.25% glutaraldehyde to crosslink the peptide. Free binding sites on the plastic were blocked using BSA. Approximately 1×10^5 cells per well were allowed to attach for 1 hour in the presence or absence of competing peptides. Bound cells were quantitated by staining with 0.1% amido black.
(§3) Inhibition of cell attachment mediated by either fibronectin- or vitronectin-binding integrins was performed to determine peptide specificity in a biologically relevant system. The assays and cell lines were performed as described above. FIGS. 5 and 6 show the results of cell attachment mediated by the fibronectin binding integrins α5β1 and αvβ1.

In the next experiment the target is αvβ5 integrin (Homo sapiens, UniProt P06756+P18084). The experiment in a line: Inhibition of αvβ5-mediated cell attachment to vitronectin. The class given is cell-based. More on the design: αvβ5-mediated attachment of HT-29 cells to vitronectin; endogenous in cells; host or cells: HT-29 cells; UCLA-P3 cells.
Chain of αvβ5 integrin (P06756 31-889 limits assumed): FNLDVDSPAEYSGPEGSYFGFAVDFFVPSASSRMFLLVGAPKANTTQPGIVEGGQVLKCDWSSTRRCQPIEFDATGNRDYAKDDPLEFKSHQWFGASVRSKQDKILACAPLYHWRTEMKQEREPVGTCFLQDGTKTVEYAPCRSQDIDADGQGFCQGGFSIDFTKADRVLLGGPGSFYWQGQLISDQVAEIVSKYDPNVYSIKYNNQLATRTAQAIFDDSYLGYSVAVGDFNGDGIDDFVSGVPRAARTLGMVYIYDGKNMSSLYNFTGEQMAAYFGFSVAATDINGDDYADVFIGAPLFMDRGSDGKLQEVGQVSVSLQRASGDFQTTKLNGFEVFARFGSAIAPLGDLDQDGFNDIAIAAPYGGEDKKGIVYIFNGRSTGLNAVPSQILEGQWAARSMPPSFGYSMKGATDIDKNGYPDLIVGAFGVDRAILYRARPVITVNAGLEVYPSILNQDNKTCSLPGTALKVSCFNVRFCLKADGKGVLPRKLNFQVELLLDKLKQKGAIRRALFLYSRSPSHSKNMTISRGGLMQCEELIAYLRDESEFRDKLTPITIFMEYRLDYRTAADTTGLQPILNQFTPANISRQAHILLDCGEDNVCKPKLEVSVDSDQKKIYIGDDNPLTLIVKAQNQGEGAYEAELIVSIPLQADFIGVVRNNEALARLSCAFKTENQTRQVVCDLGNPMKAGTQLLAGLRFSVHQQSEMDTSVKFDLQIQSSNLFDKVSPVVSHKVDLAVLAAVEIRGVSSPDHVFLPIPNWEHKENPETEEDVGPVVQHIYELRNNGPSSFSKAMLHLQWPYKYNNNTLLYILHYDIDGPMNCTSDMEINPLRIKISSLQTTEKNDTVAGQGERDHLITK
Chain of αvβ5 integrin (P06756 891-1048 partner limits assumed): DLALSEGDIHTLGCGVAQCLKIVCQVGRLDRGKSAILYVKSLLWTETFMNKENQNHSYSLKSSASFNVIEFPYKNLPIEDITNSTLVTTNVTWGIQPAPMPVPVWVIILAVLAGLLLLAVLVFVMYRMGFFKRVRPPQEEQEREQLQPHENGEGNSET
Chain of αvβ5 integrin (P18084 24-799): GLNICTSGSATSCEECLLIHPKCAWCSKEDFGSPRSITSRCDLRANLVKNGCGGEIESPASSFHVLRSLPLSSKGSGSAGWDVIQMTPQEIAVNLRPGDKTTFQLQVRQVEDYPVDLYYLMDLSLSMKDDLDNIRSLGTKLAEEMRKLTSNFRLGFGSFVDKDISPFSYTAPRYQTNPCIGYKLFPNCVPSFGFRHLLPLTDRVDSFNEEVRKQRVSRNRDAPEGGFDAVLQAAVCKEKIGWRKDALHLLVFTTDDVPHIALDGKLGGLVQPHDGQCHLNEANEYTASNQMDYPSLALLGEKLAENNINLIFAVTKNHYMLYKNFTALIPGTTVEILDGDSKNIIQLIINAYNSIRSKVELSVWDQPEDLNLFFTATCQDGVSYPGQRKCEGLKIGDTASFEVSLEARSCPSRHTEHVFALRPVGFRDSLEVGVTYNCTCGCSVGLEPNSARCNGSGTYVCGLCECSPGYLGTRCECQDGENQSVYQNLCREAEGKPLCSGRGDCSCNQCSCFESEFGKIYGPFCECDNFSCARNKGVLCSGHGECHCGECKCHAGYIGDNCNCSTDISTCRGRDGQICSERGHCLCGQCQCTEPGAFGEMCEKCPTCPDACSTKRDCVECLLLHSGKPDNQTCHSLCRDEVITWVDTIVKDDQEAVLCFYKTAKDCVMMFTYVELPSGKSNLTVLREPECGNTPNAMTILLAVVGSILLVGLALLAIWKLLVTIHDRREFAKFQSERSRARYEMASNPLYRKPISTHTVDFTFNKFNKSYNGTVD
Source text: FIG. 12—αvβ5-mediated attachment of HT-29 cells to vitronectin.
as §1, §2, §3

Bridge positions count the residues as written; N and C are the ends. Ends that are not written are not given here. Peptide text beside a SMILES is read from it.

Chain of αvβ3 integrin (P06756 31-889 limits assumed): as the sequence (P06756 31-889 limits assumed) above
Chain of αvβ3 integrin (P06756 891-1048 partner limits assumed): as the sequence (P06756 891-1048 partner limits assumed) above
Chain of αvβ3 integrin (P05106 27-788): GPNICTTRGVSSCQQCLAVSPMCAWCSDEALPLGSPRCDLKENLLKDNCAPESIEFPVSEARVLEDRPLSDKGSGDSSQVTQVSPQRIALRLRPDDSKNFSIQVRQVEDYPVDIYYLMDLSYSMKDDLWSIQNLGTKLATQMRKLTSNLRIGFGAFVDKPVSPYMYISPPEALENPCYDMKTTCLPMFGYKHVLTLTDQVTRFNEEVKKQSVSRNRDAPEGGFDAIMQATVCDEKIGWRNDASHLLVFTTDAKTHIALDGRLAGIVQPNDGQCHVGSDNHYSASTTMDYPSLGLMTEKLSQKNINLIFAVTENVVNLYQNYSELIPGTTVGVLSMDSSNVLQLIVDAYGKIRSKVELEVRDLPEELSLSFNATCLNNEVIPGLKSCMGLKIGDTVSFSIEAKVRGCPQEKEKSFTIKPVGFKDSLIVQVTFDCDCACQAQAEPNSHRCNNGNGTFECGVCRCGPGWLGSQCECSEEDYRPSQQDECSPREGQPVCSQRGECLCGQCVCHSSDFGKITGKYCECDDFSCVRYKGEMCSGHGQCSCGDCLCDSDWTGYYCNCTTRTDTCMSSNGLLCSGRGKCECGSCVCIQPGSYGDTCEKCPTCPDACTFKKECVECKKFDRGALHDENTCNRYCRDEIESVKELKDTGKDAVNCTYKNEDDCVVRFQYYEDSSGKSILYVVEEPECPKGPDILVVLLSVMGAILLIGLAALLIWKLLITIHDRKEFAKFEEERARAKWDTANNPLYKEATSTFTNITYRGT

Regarding `C[C@H](N)C(=O)N[C@H]1CSSC[C@@H](C(=O)NCC(=O)O)NC(=O)[C@H](Cc2ccccc2)NC(=O)[C@@H]2CSSC[C@H](NC(=O)[C@H](CC(=O)O)NC1=O)C(=O)N[C@@H](CCCNC(=N)N)C(=O)NCC(=O)N[C@@H](CC(=O)O)C(=O)N2` (H-ACDCRGDCFCG-OH; disulfide 2-10, 4-8), the “inhibition of phage binding to αvβ3 relative to *CRGDC*” value on αvβ3 integrin (better than *CRGDC*) is on record as 5 fold. For the same molecule, in the experiment with α5β1 integrin (cell attachment to fibronectin), the “activity toward α5β1 compared to *CRGDC*” value was “significantly decreased activity” and the “activity toward α5β1 compared to linear GRGDSP” value is on record as “only slightly better”. Besides, the “affinity relative to *CRGDC* in HT-29 attachment to vitronectin” value at αvβ5 integrin (HT-29 cells, higher than *CRGDC*) is on record as 40 fold. Moreover, at αvβ5 integrin (HT-29 cells, higher than A*CRGDGWC*G), the “affinity relative to A*CRGDGWC*G in HT-29 attachment to vitronectin” value is listed as 40 fold. Further, the “enhancement in activity relative to *CRGDC* in UCLA-P3 cells” value at αvβ5 integrin (UCLA-P3 cells) turned out to be 20 fold.

Turning to “A*CPSRLDSPC*G (ACPSRLDSPCG; disulfide 2-10 (inferred))”, in the experiment with αvβ3 integrin (phage binding experiments), the “affinity for αvβ3” value is “low” and the “selectivity towards the αvβ3 integrin” value was “partial selectivity”.

GACRRETAWACGA: the “inhibition of binding of CRGDCL-displaying phage to integrin-coated wells” value on αvβ3 integrin (CRGDCL-displaying phage, αvβ3-coated wells, FIG. 3 (result sentence prints α5β1)) was “ineffective”. In addition, in the experiment with α5β1 integrin (110 kDa fragment containing the cell attachment domain), the “inhibition of cell attachment to a 110 kDa fragment of fibronectin” value was “inhibited”. In addition, in the experiment with α5β1 integrin (A375-M cells (also express α4β1)), the “inhibition of attachment of A375-M cells to fibronectin” value was “only partially inhibited”. Besides, the “efficiency at inhibiting binding to α5β1 compared with cyclic CRGDCL peptide” value in the experiment on α5β1 integrin (B2/α27 cells, fibronectin, FIG. 5) is listed as “more efficient”. In the experiment with α5β1 integrin (linearized vs cyclic peptide), the “binding activity following reduction of the disulfide bond and alkylation of the cysteine residues” value is “greatly decreased”; the “reduction of activity after reduction and alkylation of the disulfide bond” value is “about 50 ×”. Moreover, the “activity against cell attachment to vitronectin” value on αvβ5 integrin (all concentrations tested, FIG. 7 (sentence prints αvβ1)) is given as “essentially devoid of activity”.

The values above are taken from US7067619B2, “Integrin-binding peptides” (La Jolla Cancer Research Foundation, priority 1993, dated 2006).
